Patent US20230085307A1, “PYRIDAZINONE COMPOUND AND HERBICIDE” (NISSAN CHEMICAL CORPORATION, priority 2019, published 2023)

Key:
Japanese bulrush = assay: Test Example 1: herbicidal activity, application before weed generation under submerged conditions (Table 16, symbol B); format: in vivo, Japanese bulrush (Schoenoplectus juncoides); conditions: 320 g/ha applied herbicide
Procedure, shortened: (§1)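 Alluvial soil was flooded to 4 cm depth, weed seeds were sown mixed and 2.5-leaf rice seedlings were transplanted. On sowing day, the compound's emulsion, diluted in water to a set dose, was applied to the water surface. Plants grew at 25–30 °C and were scored 0–5 after three weeks.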

oval-leafed pondweed = assay: Test Example 1: herbicidal activity, application before weed generation under submerged conditions (Table 16, symbol C); format: in vivo, oval-leafed pondweed (Monochoria vaginalis); conditions: 320 g/ha applied herbicide
Procedure, shortened: as §1

late watergrass = assay: Test Example 2: herbicidal activity, application during weed generation under submerged conditions (Table 17, symbol A); format: in vivo, late watergrass (Echinochloa oryzicola); conditions: AAH 320 g/ha; application during weed generation, submerged conditions
Procedure, shortened: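 Steps: fill Wagner pots with alluvial soil; add water to give 4 cm depth; sow the species mixed; grow under glass at 25–30° C.; at 1–2 leaves apply water-diluted emulsion formulation to the water surface at a fixed herbicide amount; score after 3 weeks.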

barnyard grass [1] = assay: Test Example 3: herbicidal effect by foliage application, Wagner pot (Table 18, symbol H); format: in vivo, barnyard grass (Echinochloa crus-galli); conditions: amount of applied herbicide 320 g/ha
Procedure, shortened: (§2)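 Plants were sown in alluvial soil held under 0.1–0.5 cm standing water and grown 14 days in a greenhouse at 25–30 °C. An emulsifiable formulation, water-diluted to the set dose, was then sprayed onto the foliage, and effects were scored three weeks later using previously defined criteria.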

Chinese sprangletop = assay: Test Example 3: herbicidal effect by foliage application, Wagner pot (Table 18, symbol D); format: in vivo, chinese sprangletop (Leptochloa chinensis); conditions: amount of applied herbicide 320 g/ha
Procedure, shortened: as §2

rice flat sedge = assay: Test Example 3: herbicidal effect by foliage application, Wagner pot (Table 18, symbol E); format: in vivo, rice flat sedge (Cyperus iria); conditions: amount of applied herbicide 320 g/ha
Procedure, shortened: as §2

barnyard grass [2] = assay: Test Example 4: herbicidal effect by soil treatment (Table 19, symbol H); format: in vivo, barnyard grass (Echinochloa crus-galli); conditions: amount of applied herbicide 320 g/ha
Procedure, shortened: (§3)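 Emulsion of test compound, water-diluted to predetermined amount, sprayed on soil after sowing (seed depth ~1.5 cm, sterilized diluvial soil). Greenhouse, 25–30° C. Effect graded at three weeks post-spray.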

wild oat [3] = assay: Test Example 4: herbicidal effect by soil treatment (Table 19, symbol I); format: in vivo, wild oat (Avena fatua); conditions: amount of applied herbicide 320 g/ha
Procedure, shortened: as §3

windgrass [4] = assay: Test Example 4: herbicidal effect by soil treatment (Table 19, symbol L); format: in vivo, windgrass (Apera spica-venti); conditions: amount of applied herbicide 320 g/ha
Procedure, shortened: as §3

velvetleaf [5] = assay: Test Example 4: herbicidal effect by soil treatment (Table 19, symbol M); format: in vivo, velvetleaf (Abutilon theophrasti); conditions: amount of applied herbicide 320 g/ha
Procedure, shortened: as §3

lambsquarters = assay: Test Example 4: herbicidal effect by soil treatment (Table 19, symbol O); format: in vivo, lambsquarters (Chenopodium album); conditions: amount of applied herbicide 320 g/ha
Procedure, shortened: as §3

green foxtail = assay: Test Example 5: herbicidal effect by foliage application, plastic box (Table 20, symbol G); format: in vivo, green foxtail (Setaria viridis); conditions: foliage application, evaluated three weeks after application; for herbicidal effect on G: green foxtail (criteria 0-5): 320 g/ha; for G: green foxtail, herbicidal effect (criteria 0-5): AAH 320 g/ha
Procedure, shortened: (§4)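 Post-emergence foliar test in sterilized diluvial soil. Compound applied as water-diluted emulsion at a predetermined rate to 14-day-old plants; evaluation at three weeks.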

wild oat [6] = assay: Test Example 5: herbicidal effect by foliage application, plastic box (Table 20, symbol I); format: in vivo, wild oat (Avena fatua); conditions: foliage application, evaluated three weeks after application; for herbicidal effect on I: wild oat (criteria 0-5): 320 g/ha; for I: wild oat, herbicidal effect (criteria 0-5): AAH 320 g/ha
Procedure, shortened: as §4

blackgrass = assay: Test Example 5: herbicidal effect by foliage application, plastic box (Table 20, symbol J); format: in vivo, blackgrass (Alopecurus myosuroides); conditions: foliage application, evaluated three weeks after application; for herbicidal effect on J: blackgrass (criteria 0-5): 320 g/ha; for J: blackgrass, herbicidal effect (criteria 0-5): AAH 320 g/ha
Procedure, shortened: as §4

windgrass [7] = assay: Test Example 5: herbicidal effect by foliage application, plastic box (Table 20, symbol L); format: in vivo, windgrass (Apera spica-venti); conditions: foliage application, evaluated three weeks after application; for herbicidal effect on L: windgrass (criteria 0-5): 320 g/ha; for L: windgrass, herbicidal effect (criteria 0-5): AAH 320 g/ha
Procedure, shortened: as §4

velvetleaf [8] = assay: Test Example 5: herbicidal effect by foliage application, plastic box (Table 20, symbol M); format: in vivo, velvetleaf (Abutilon theophrasti); conditions: foliage application, evaluated three weeks after application; for herbicidal effect on M: velvetleaf (criteria 0-5): 320 g/ha; for M: velvetleaf, herbicidal effect (criteria 0-5): AAH 320 g/ha
Procedure, shortened: as §4

chickweed = assay: Test Example 5: herbicidal effect by foliage application, plastic box (Table 20, symbol P); format: in vivo, common chickweed (Stellaria media); conditions: foliage application, evaluated three weeks after application; for herbicidal effect on P: chickweed (criteria 0-5): 320 g/ha; for P: chickweed, herbicidal effect (criteria 0-5): AAH 320 g/ha
Procedure, shortened: as §4

Compound | Herbicidal effect on B: Japanese bulrush (grade 0-5) (Japanese bulrush) | Herbicidal effect on C: oval-leafed pondweed (grade 0-5) (oval-leafed pondweed) | herbicidal effect rating, A: late watergrass (late watergrass) | herbicidal effect on H: barnyard grass (barnyard grass [1]) | herbicidal effect on D: Chinese sprangletop (Chinese sprangletop) | herbicidal effect on E: rice flat sedge (rice flat sedge) | herbicidal effect on H: barnyard grass (barnyard grass [2]) | herbicidal effect on I: wild oat (wild oat [3]) | herbicidal effect on L: windgrass (windgrass [4]) | herbicidal effect on M: velvetleaf (velvetleaf [5]) | herbicidal effect on O: lambsquarters (lambsquarters) | herbicidal effect on G: green foxtail (criteria 0-5) (green foxtail) | herbicidal effect on I: wild oat (criteria 0-5) (wild oat [6]) | herbicidal effect on J: blackgrass (criteria 0-5) (blackgrass) | herbicidal effect on L: windgrass (criteria 0-5) (windgrass [7]) | herbicidal effect on M: velvetleaf (criteria 0-5) (velvetleaf [8]) | herbicidal effect on P: chickweed (criteria 0-5) (chickweed) | G: green foxtail, herbicidal effect (criteria 0-5) (green foxtail) | I: wild oat, herbicidal effect (criteria 0-5) (wild oat [6]) | J: blackgrass, herbicidal effect (criteria 0-5) (blackgrass) | also measured
CCCC(=O)Oc1c(C)nn(C)c(=O)c1-c1c(-c2ccc(C(F)F)cc2)sc2ccc(F)cc12 [2-228] | 4 (Herbicidal rate of 70% or more and less than 90%) | 4 (Herbicidal rate of 70% or more and less than 90%) | 3 (Herbicidal rate of 40% or more and less than 70%) | 5 (Herbicidal rate of 90% or more (almost completely withered)) | 4 (Herbicidal rate of 70% or more and less than 90%) | 5 (Herbicidal rate of 90% or more (almost completely withered)) | 5 (Herbicidal rate of 90% or more (almost completely withered)) | 0 (Herbicidal rate of 5% or less (almost no effect)) | 0 (Herbicidal rate of 5% or less (almost no effect)) | 3 (Herbicidal rate of 40% or more and less than 70%) | 4 (Herbicidal rate of 70% or more and less than 90%) | 5 (Herbicidal rate of 90% or more (almost completely withered)) | 0 (Herbicidal rate of 5% or less (almost no effect)) | 3 (Herbicidal rate of 40% or more and less than 70%) | 0 (Herbicidal rate of 5% or less (almost no effect)) | 5 (Herbicidal rate of 90% or more (almost completely withered)) | 5 (Herbicidal rate of 90% or more (almost completely withered)) |  |  |  | 
CCSc1ccc(-c2sc3ccc(F)cc3c2-c2c(O)c(C)nn(C)c2=O)cc1 [2-244] | 0 (Herbicidal rate of 5% or less (almost no effect)) | 0 (Herbicidal rate of 5% or less (almost no effect)) | 5 (Herbicidal rate of 90% or more (almost completely withered)) | 5 (Herbicidal rate of 90% or more (almost completely withered)) | 5 (Herbicidal rate of 90% or more (almost completely withered)) | 5 (Herbicidal rate of 90% or more (almost completely withered)) | 4 (Herbicidal rate of 70% or more and less than 90%) | 0 (Herbicidal rate of 5% or less (almost no effect)) | 3 (Herbicidal rate of 40% or more and less than 70%) | 2 (Herbicidal rate of 20% or more and less than 40%) | 4 (Herbicidal rate of 70% or more and less than 90%) | 5 (Herbicidal rate of 90% or more (almost completely withered)) | 5 (Herbicidal rate of 90% or more (almost completely withered)) | 5 (Herbicidal rate of 90% or more (almost completely withered)) | 5 (Herbicidal rate of 90% or more (almost completely withered)) | 5 (Herbicidal rate of 90% or more (almost completely withered)) | 5 (Herbicidal rate of 90% or more (almost completely withered)) |  |  |  | 
Cc1nn(C)c(=O)c(-c2c(-c3ccc(SC4CC4)cc3)sc3ccc(F)cc23)c1O [2-254] | 3 (Herbicidal rate of 40% or more and less than 70%) | 1 (Herbicidal rate of 5% or more and less than 20%) | 4 (Herbicidal rate of 70% or more and less than 90%) | 5 (Herbicidal rate of 90% or more (almost completely withered)) | 5 (Herbicidal rate of 90% or more (almost completely withered)) | 5 (Herbicidal rate of 90% or more (almost completely withered)) | 5 (Herbicidal rate of 90% or more (almost completely withered)) | 1 (Herbicidal rate of 5% or more and less than 20%) | 3 (Herbicidal rate of 40% or more and less than 70%) | 2 (Herbicidal rate of 20% or more and less than 40%) | 4 (Herbicidal rate of 70% or more and less than 90%) |  |  |  |  |  |  | 5 (Herbicidal rate of 90% or more (almost completely withered)) | 5 (Herbicidal rate of 90% or more (almost completely withered)) | 5 (Herbicidal rate of 90% or more (almost completely withered)) | L: windgrass, herbicidal effect (criteria 0-5) (windgrass [7]): 5 (Herbicidal rate of 90% or more (almost completely withered)); M: velvetleaf, herbicidal effect (criteria 0-5) (velvetleaf [8]): 5 (Herbicidal rate of 90% or more (almost completely withered)); P: chickweed, herbicidal effect (criteria 0-5) (chickweed): 5 (Herbicidal rate of 90% or more (almost completely withered))
Cc1nn(C)c(=O)c(-c2c(-c3ccc([S+]([O-])C(C)C)cc3)sc3ccc(F)cc23)c1O (centres unmarked) [2-257] | 0 (Herbicidal rate of 5% or less (almost no effect)) | 2 (Herbicidal rate of 20% or more and less than 40%) | 2 (Herbicidal rate of 20% or more and less than 40%) | 5 (Herbicidal rate of 90% or more (almost completely withered)) | 3 (Herbicidal rate of 40% or more and less than 70%) | 5 (Herbicidal rate of 90% or more (almost completely withered)) | 4 (Herbicidal rate of 70% or more and less than 90%) | 0 (Herbicidal rate of 5% or less (almost no effect)) | 0 (Herbicidal rate of 5% or less (almost no effect)) | 3 (Herbicidal rate of 40% or more and less than 70%) | 5 (Herbicidal rate of 90% or more (almost completely withered)) |  |  |  |  |  |  | 4 (Herbicidal rate of 70% or more and less than 90%) | 5 (Herbicidal rate of 90% or more (almost completely withered)) | 4 (Herbicidal rate of 70% or more and less than 90%) | L: windgrass, herbicidal effect (criteria 0-5) (windgrass [7]): 5 (Herbicidal rate of 90% or more (almost completely withered)); M: velvetleaf, herbicidal effect (criteria 0-5) (velvetleaf [8]): 5 (Herbicidal rate of 90% or more (almost completely withered)); P: chickweed, herbicidal effect (criteria 0-5) (chickweed): 5 (Herbicidal rate of 90% or more (almost completely withered))
